Entries after “also recorded” stand apart in the source; their conditions may differ. Residues, ends and D or L forms follow the SMILES beside them.
Key:
endothelial cell = conditions: physiological titers and concentrations; cited from earlier work
endothelial cells = conditions: cited from earlier work
[1] = tested on: bovine aortic endothelial cells (BAEC); assay: Microfilament and cell surface area measurement in cultured endothelial cells (rhodamine-phalloidin fluorescence microscopy); assay type: cell-based
From the text: Bovine abdominal aortas were clamped and tied in-situ and dissected free of the supporting adventitia. Aortas were transported from the abbatoir on ice. Endothelial cells were harvested by gentle ablation of the endothelium following the technique of Shepro et al. [Anat. Rec. 178:523 (1974)]; digested with 0.1% collagenase; and then pelleted and seeded onto 100 mm diameter tissue culture dishes using conventional techniques. The cell medium consisted of DULBECCO'S MODIFIED EAGLES'S MEDIUM medium (hereinafter "DME") at pH 7.4 supplemented with 10% fetal calf serum (hereinafter "FCS"), 0.1% of penicillin, 0.7% streptomycin, 0.1% amphotericin, and 0.1% glutamine. The cell media was replaced every 3 days. The cells were incubated at 37° C. in a 10% carbon dioxide, 90% ambient atmosphere (100% humidified).
This amount of confluency permits excellent visualization of cell spreading and stressed fibers. Individual confluent layers of cells were then treated with 1 uM Phallin A for 30 minutes duration; then fixed in 3.7% phosphate-buffered formaldehyde (pH 7.4) for 15 minutes. The cells on each coverslip were then permeabilized in extraction buffer (composed of 0.5M KCl, 1% triton X-100, 10 mM MgCl2, and 1 mg/ml tosyl-arginine methyl ester (hereinafter "TAME"); 17 ug/ml toluene-sulfonyl fluoride (hereinafter "TSF"); and 0.25 mg/ml DNAse 1 in PBS for a period of 10 minutes. Subsequently, this extraction buffer was removed and the cells washed three times in sequence with PBS. The cells were then stained with Rhodamine-phalloidin (an F-active specific fluorescent probe, Molecular Probes, Inc., Junction City, Oreg.) at 1 unit/200 ul per coverslip for 39 minutes duration. Subsequently, the coverslips were washed five times consecutively in PBS; mounted in a 1:1 ratio mixture of PBS/glycerol; and sealed. The cultured cells on each coverslip were illuminated for fluorescence microscopy. […] For comparative purposes, 1.0 uM of phalloidin (also known as Phallin B) or a mixture of Phallin A and Phhallin B, and PBS alone as the control was similarly evaluated. […] Clearly, the use of Phallin A at concentrations of 10^-6 to 10^-7 M is non-toxic to the cultured endothelial cells.

[2] = tested on: bovine aortic endothelial cells (BAEC); assay: Permeability assay: TBA (trypan blue-albumin) uptake by BAEC-covered microcarrier beads; assay type: cell-based; conditions: 1 uM, 30 minutes, versus untreated controls and mixture of phalloidin and Phallin A, FIG. 2
Protocol: Bovine aortic endothelial cells (BAEC) were prepared, cultured, and harvested as described within Experiment 1. Subsequently, BAEC were subcultured a maximum of three times before seeding onto CYTODEX 3 microcarrier beads (Pharmacia, Inc. ) . Microcarrier beads were suspended in cell media at a concentration of 40,000 microcarriers per milliliter. Beads were suspended by stirring, using a magnetic stirrer. BAEC were seeded onto the beads at the minimum density of 15 cells per bead and allowed to reach confluency. Subsequently, BAEC covered beads were allowed to incubate for 6 days post-confluency to obtain near maximum barrier function of the cell monolayers on the beads. After this incubation period, the BAEC covered beads were ready for use within permeability experiments. […]
BAEC barrier function was measured by TBA uptake per bead; therefore, it is necessary to standardize the number of beads per milliliter. […] Standard curves for absorbance as a function of bead concentration provides a linear relationship as a basis for comparison and extrapolation. […]
BAEC barrier function was then assessed in the following manner: 3.0 ml of BAEC-covered microcarrier beads at a density of 40,000 beads per milliliter were aliquotted into a 4.5 ml test vial in duplicate. […]
This assay procedure uses colorimetry to measure TBA dye absorbance by the beads. […]

[3] = cited from earlier work
[4] = tested on: endothelial actin cytoskeleton; conditions: cited from earlier work

Question: Which endothelial cell movement (endothelial cell) does the source give for NCCc1c[nH]c2ccc(O)cc12 [serotonin] here?
Answer: inhibit endothelial cell movement

Question: What about the “stress fibers within endothelial cells” value (endothelial cells) of the same molecule?
Answer: stimulate the assembly of stress fibers

Question: For NC[C@H](O)c1ccc(O)c(O)c1 [norepinephrine], which endothelial cell movement (endothelial cell) is on record?
Answer: inhibit endothelial cell movement

Question: And the “stress fibers within endothelial cells” value (endothelial cells)?
Answer: stimulate the assembly of stress fibers

Question: Which results are given for NCCc1c[nH]cn1 [histamine]?
Answer: endothelial cell movement (endothelial cell): inhibit endothelial cell movement; stress fibers within endothelial cells (endothelial cells): produces stress fiber disassembly

Question: With CC(C)[C@@H]1NC(=O)[C@H](Cc2ccccc2)NC(=O)[C@H](Cc2ccccc2)NC(=O)[C@@H]2CCCN2C(=O)[C@@H]2CCCN2C(=O)[C@H](Cc2ccccc2)NC(=O)[C@H](Cc2ccccc2)NC(=O)[C@H](C)NC(=O)[C@@H]2CCCN2C(=O)[C@@H]2CCCN2C1=O [Phallin A, antamanide] (cyclo(AFFPPFFVPP)) as the molecule, how does the “cell surface area and cell perimeter” value ([1]; BAEC at 50% confluency, 1 uM, 30 minutes) read?
Answer: increased surface area and cell perimeter

Question: And the cell proliferation ([1]; BAEC, 1.0 uM, FIG. 1)?
Answer: do not alter in proliferation

Question: What about the “ratio of cell perimeter to cell area (roundness)” value ([1]; BAEC, 1.0 uM, FIG. 1) of the same molecule?
Answer: diminishes

Question: What about the “cell shape (flattening and border extension)” value ([1]; BAEC, 1.0 uM, FIG. 1, comparable to other agents and controls) of the same molecule?
Answer: substantial flattening and border extension

Question: What about the “toxicity to cultured endothelial cells” value ([1]; concentrations of 10^-6 to 10^-7 M) of the same molecule?
Answer: non-toxic

Question: And the “endothelial cell barrier function / resistance to permeability (TBA uptake)” value [2]?
Answer: markedly increases cell barrier function

Question: And the “protection of the liver” value ([3]; administered in therapeutic doses)?
Answer: protecting the liver completely

Question: What about the “annulling toxic effects of fatal doses of phalloidin” value ([3]; in vivo) of the same molecule?
Answer: capable of annulling the toxic effects of fetal doses of phalloidin; also recorded: capable at very low dosage of counteracting the effects of an absolutely fatal dose of phalloidin

Question: With C=C1[C@@H](C)[C@H]2[C@H](Cc3ccccc3)NC(=O)[C@]23OC(=O)/C=C/[C@H](O)CCC[C@@H](C)C/C=C/[C@H]3[C@@H]1O [cytochalasin B] as the molecule, how does the “permeability for plasma proteins after disruption of endothelial actin cytoskeleton” value [4] read?
Answer: increase in permeability for plasma proteins
